One experiment deals with plaque bacteria. Briefly: in vitro anti-plaque test involving saliva reinoculation. The conditions noted are these: 20 minutes on plaque grown on enamel discs. Type of experiment: cell-based.
A further experiment has as its system S.mutans. The conditions noted are these: pH = 7; acid production by S.mutans.

Experimental findings from EP0658565A1, “Oral products” (UNILEVER PLC, priority 1993, dated 1995) are described below.

With `O=P([O-])([O-])O[C@H]1O[C@H](CO)[C@@H](O)[C@H](O)[C@H]1O.[Sn+2]` [Sn G-1-P, stannous glucose-1-phosphate], the “Relative Anti-Plaque Activity (% bacteria killed vs. control growth)” value with plaque bacteria (Sn^II conc. 1188 ppm) came out at 32%; in the experiment on plaque bacteria (Sn^II conc. 3594 ppm) it was 96%; in the experiment on plaque bacteria (Sn^II conc. 6000 ppm) it was 98%. Further, the “Concentration of Sn²⁺ in mmole to reach 100 % acid inhibition” value with S.mutans was 0.2 mmol.

For the compound `O=P([O-])([O-])OP(=O)([O-])[O-].[Sn+2].[Sn+2]` [Sn₂P₂O₇, stannous pyrophosphate, reference compound], the “Relative Anti-Plaque Activity (% bacteria killed vs. control growth)” value in the experiment with plaque bacteria (Sn^II conc. 6000 ppm) amounted to 76%. In addition, the “Concentration of Sn²⁺ in mmole to reach 100 % acid inhibition” value in the experiment on S.mutans was found to be 1.02 mmol.

In the case of stannous glucose-6-phosphate [Sn G-6-P], the “Relative Anti-Plaque Activity (% bacteria killed vs. control growth)” value in the experiment with plaque bacteria (Sn^II conc. 2406 ppm) was 22%; in the experiment with plaque bacteria (Sn^II conc. 3594 ppm), 75%; with plaque bacteria (Sn^II conc. 6000 ppm) it was 88%. Moreover, the “Concentration of Sn²⁺ in mmole to reach 100 % acid inhibition” value in the experiment on S.mutans is 0.25 mmol.
